Reference: patent US6982252B2, “Inhibition of vacuolar proton ATPase activity and/or the modulation of acidic organelle function sensitizes cells to radiation, chemotherapy and biological agents” (Memorial Sloan-Kettering Cancer Center, priority 2000, dated 2006)
Several values for one entry are separate records, joined by “and”; a condition that tells them apart may be missing. Equal entries are not always repeated.

Key:
[1] = target: V-ATPase (Homo sapiens, UniProt P27449); conditions: Gagliardi et al., 1999; cited from earlier work
V-ATPase, sequence (P27449 whole entry): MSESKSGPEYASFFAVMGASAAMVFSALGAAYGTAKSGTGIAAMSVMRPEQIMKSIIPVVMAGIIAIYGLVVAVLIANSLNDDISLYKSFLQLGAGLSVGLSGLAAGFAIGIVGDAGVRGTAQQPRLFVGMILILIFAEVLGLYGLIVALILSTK

[2] = test system: MCF-7 (human breast adenocarcinoma); test: Clonogenic survival (surviving fraction) of MCF-7 cells after radiation or chemotherapeutic agent; type: cell-based
Experimental: MCF-7 (human breast adenocarcinoma), LoVo (human colon adenocarcinoma) and LNCaP (human prostate carcinoma) were obtained from the American Type Culture Collection. Cells were maintained as described in Paglin et al., 1997, Biochem. Biophs. Res. Comm. 237:678-684). Irradiation was carried out 48 hours post-plating (T0) at room temperature using a Cs-137 irradiator (Sheperd Mark-I, model 68, SN643) at a dose rate of 2.43-2.32 Gy/min. Bovine aortic endothelial cells were grown and treated with H2O2 as described in Haimovitz-Friedman et al., 1994, J. Exp. Med. 180:525-535 and Verhij et al., 1996, Nature 380:75-79. Phorbol 12-myristate 13-acetate (PMA; Alexis Biochemicals Corp., San Diego, Calif.) was dissolved in dimethyl sulfoxide (DMSO) and added to cells for the duration of one hour. The final DMSO concentration was 0.03%. The cells were then rinsed with warm growth medium before being returned to the incubator for an additional 48 hours.
Cells were plated in growth medium at a density of 30-90 cells per square centimeter and irradiated 22 hours later. Each experimental condition was done in quintet or triplicate. Cells were irradiated at room temperature in Cs-137 Irradiator (Sheperd Mark-I, Model 68, SN 643) at a rate of 2.43-2.32 Gy/min. […] For determination of their red to green ratio, colonies were processed as described above. For determination of surviving fractions cells were stained with crystal violet and colonies containing 50 cells or more were counted with a dissecting microscope. The surviving fraction was defined as the ratio between the plating efficiencies of irradiated and non-irradiated cells and was calculated at each dose level according to Hall and Phill (1994, […] for the Radiologist, 4th Edition, J. Lippincott Co., Philadelphia).

[3] = test system: DNA of irradiated MCF-7 cells; test: DNA fragmentation by pulse field gel electrophoresis (PFGE); type: cell-based, human; conditions: bafilomycin A1 (4 nM) added two days following 10 Gy, for 24 hours
Experimental: FIG. 6. Bafilomycin A1 enhances DNA fragmentation in irradiated cells: Cells were irradiated 48 hours post-plating and bafilomycin A1 (4 nM) was added 48 hours following irradiation, for the duration of 24 hours, from concentrated stock solution at dimethylsulfoxide (DMSO) to a final concentration of 4 nM. Control cells received the vehicle alone. Cells were harvested 72 hours following irradiation. Plug preparation and resolution of DNA was conducted according to Gilles et al. (2000, Blood 95:2930-2936). M-DNA size standard, lambda 50 kb ladder. A-Unirradiated controls. B-Cells irradiated with 10 Gy. C-Unirradiated cells incubated with 4 nM bafilomycin A1. D-Cells irradiated with 10 Gy and incubated with 4 nM bafilomycin A1. Window of DNA resolution was 20 kb-1000 kb. Arrow 1 points to sample origin. Arrow 2 points to zone of no resolution.
DNA extraction and electrophoresis on agarose gel was carried out according to Bose et al., 1995, Cell 82:405-414. DNA preparation and resolution with pulse field gel electrophoresis (PFGE) was conducted as described in Gilles et al., 2000, Blood 95:2930-2936 utilizing the CHEF Mapper (Bio-Rad, Richmond, Calif.). DNA strand breaks were assayed by the TUNEL method and analyzed by flow cytometry (Haimovitz-Friedman, 1994, J. Exp. Med. 180:525-535).

[4] = subcutaneous, doses smaller than 1 mg/kg/day, cited from earlier work
[5] = Bafilomycin A1 8 nM, no radiation

bafilomycin A1
concentration range that inhibits V-H+-ATPase activity without affecting F or P-type ATPases [1]: nM range
reduction of survival of irradiated cells ([2]; 2 nM bafilomycin A1, 300 cGy, two separate experiments): 45% and 32%
Surviving fraction in the presence of Baf A1 (2nM) ([2]; Baf A1 2nM added at irradiation for 24 hours, 2 Gy): 0.51 ± 0.07
Surviving fraction in the presence of Baf A1 (2nM) ([2]; Baf A1 2nM added at irradiation for 24 hours, 3 Gy): 0.23 ± 0.05
Surviving fraction in the presence of Baf A1 (2nM) ([2]; Baf A1 2nM for 24 hours, 0 Gy, listed as Baf A1): 0.9 ± 0.14
Surviving fraction in the presence of Baf A1 (2nM) ([2]; Baf A1 2nM for 24 hours, 0 Gy, listed as bafilomycin A1): without significantly affecting
Normalized Surviving Fraction ([2]; Bafilomycin A1 8 nM, 2 Gy): 0.47
Plating Efficiency ([2]; Bafilomycin A1 8 nM, 2 Gy): 43 ± 7.7
Surviving Fraction ([2]; Bafilomycin A1 8 nM, 2 Gy): 0.26
Normalized Surviving Fraction ([2]; Bafilomycin A1 8 nM, 4 Gy): 0.11
Plating Efficiency ([2]; Bafilomycin A1 8 nM, 4 Gy): 21 ± 3.4
Surviving Fraction ([2]; Bafilomycin A1 8 nM, 4 Gy): 0.06
Normalized Surviving Fraction ([2]; Bafilomycin A1 8 nM, 6 Gy): 0.23
Plating Efficiency ([2]; Bafilomycin A1 8 nM, 6 Gy): 7 ± 3
Surviving Fraction ([2]; Bafilomycin A1 8 nM, 6 Gy): 0.01
Normalized Surviving Fraction [2, 5]: 1
Plating Efficiency [2, 5]: 98 ± 12
Surviving Fraction [2, 5]: 0.59
decrease of survival ([2]; MCF-7, 2 nM bafilomycin, 100 nM adriamycin): 34%
Surviving Fraction ([2]; Table 4, 2 nM bafilomycin A1, 2 Gy): 0.51 ± 0.07
Surviving Fraction ([2]; Table 4, 2 nM bafilomycin A1, 4 Gy): 0.17 ± 0.02
Surviving Fraction ([2]; Table 4, 2 nM bafilomycin A1, 6 Gy): 0.02 ± 0.003
decrease of survival following irradiation ([2]; Table 4, 2 nM bafilomycin A1, 200 cGy): 27%
decrease of survival following irradiation ([2]; Table 4, 2 nM bafilomycin A1, 400 cGy): 37%
decrease of cell survival following irradiation ([2]; Table 5, 2 nM bafilomycin A1, 200 cGy): 19%
decrease of cell survival following irradiation ([2]; Table 5, 2 nM bafilomycin A1, 400 cGy): 13%
Surviving Fraction ([2]; Table 5, 2 nM bafilomycin A1, Radiation Dose (cGy) 0): 1 ± 0.07
Surviving Fraction ([2]; Table 5, 2 nM bafilomycin A1, Radiation Dose (cGy) 2): 0.57 ± 0.04
Surviving Fraction ([2]; Table 5, 2 nM bafilomycin A1, Radiation Dose (cGy) 4): 0.27 ± 0.01
Surviving Fraction ([2]; Table 5, 2 nM bafilomycin A1, Radiation Dose (cGy) 6): 0.05 ± 0.01
reduction of survival ([2]; Table 6, 2 nM bafilomycin, 3 Gy): 37%
Surviving Fraction ([2]; Table 6, 2 nM bafilomycin, X radiated 3 Gy): 0.28 ± 0.03
Surviving Fraction ([2]; Table 6, 4 nM bafilomycin, C non-irradiated control): 0.7 ± 0.03
Surviving Fraction ([2]; Table 6, 4 nM bafilomycin, X radiated 3 Gy): 0.2 ± 0.03
Surviving Fraction ([2]; Table 6, 8 nM bafilomycin, C non-irradiated control): 0.66 ± 0.05
Surviving Fraction ([2]; Table 6, 8 nM bafilomycin, X radiated 3 Gy): 0.14 ± 0.02
Surviving Fraction ([2]; Table 6, 16 nM bafilomycin, C non-irradiated control): 0.52 ± 0.05
Surviving Fraction ([2]; Table 6, 16 nM bafilomycin, X radiated 3 Gy): 0.12 ± 0.03
Surviving Fraction ([2]; Table 7, 2 nM bafilomycin A1, C non-irradiated): does not significantly affect
Surviving Fraction ([2]; Table 7, 2 nM bafilomycin A1, C non-irradiated, listed as bafilomycin Al): 0.92 ± 0.06
Surviving Fraction ([2]; Table 7, 2 nM bafilomycin A1, X radiated 3 Gy): 0.22 ± 0.04
reduction of cell survival ([2]; Table 7, 2 nM bafilomycin, 300 cGy): 49%
Surviving Fraction ([2]; Table 7, 4 nM bafilomycin A1, C non-irradiated): 0.79 ± 0.04
Surviving Fraction ([2]; Table 7, 4 nM bafilomycin A1, X radiated 3 Gy): 0.16 ± 0.04
Surviving Fraction ([2]; Table 7, 8 nM bafilomycin A1, C non-irradiated): 0.60 ± 0.08
Surviving Fraction ([2]; Table 7, 8 nM bafilomycin A1, X radiated 3 Gy): 0.12 ± 0.02
Surviving Fraction ([2]; Table 7, 16 nM bafilomycin A1, C non-irradiated): 0.35 ± 0.05
Surviving Fraction ([2]; Table 7, 16 nM bafilomycin A1, X radiated 3 Gy): 0.09 ± 0.04
survival (head of column empty) ([2]; Table 15, MCF-7, Bafilomycin 2 nM alone): 0.95 ± 0.1
survival, column Adriamycin ([2]; Table 15, MCF-7, Bafilomycin 4 nM + 100 nM adriamycin): 0.35 ± 0.05
survival (head of column empty) ([2]; Table 15, MCF-7, Bafilomycin 4 nM alone): 0.61 ± 0.05
cell survival, Bafilomycin A1 (2 nM) ([2]; Table 18, MCF-7, Bafilomycin A1 2 nM + Etoposide 0.05 μg/ml): 0.36 ± 0.08
reduction of the surviving fraction ([2]; bafilomycin A1 for 24 hours following irradiation with 2 and 3 Gy): 30%-40%
DNA cleavage into large fragments (20-1000 kb) [3]: dramatically increased DNA clevage into large fragments
histological examination of organs ([4]; four weeks treatment): did not affect the liver, pancreas, small intestine, kidney or lung
growth of nude mice ([4]; up to four weeks, Ohta et al., 1998): did not affect the growth
